Entries after “also recorded” stand apart in the source; their conditions may differ.

Data set [1] concerns 15-lipoxygenase (15-LO). Kind of data set: 15(S)-HETE ELISA following erastin treatment, healthy fibroblasts. Particulars: erastin + FAC + AA, 1 μM compound, 24 h. In kind it is cell-based, human. As to the method: Samples for the 15(S)-HETE ELISA were generated by the Erastin Assay described above. Healthy or Leigh fibroblasts were resuspended in assay medium, seeded at 200,000 cells/well in a clear, tissue culture-treated, 24-well plate, and incubated at 37° C. for 24 hours. Supernatant was aspirated from each well.
Ferroptosis was induced using erastin at 2 μM concentration. 15(S)-HETE, which is a metabolite of arachidonic acid and generated by activity of 15-LO, was measured using a commercially available ELISA kit. Data were normalized to the “No treatment” group, which represented fibroblasts that were not injured with erastin.

In data set [2] the test system is ROS production generated by reverse electron transfer (RET) from Complex II to Complex I. Kind of data set: Reverse electron transfer assay (RET assay) in isolated brain mitochondria. Format: biochemical, mouse. As to the method:
For mitochondria isolation, brains were dissected at a local vivarium (Explora, MA, USA) from C57BL/6 mice that were supplied by The Jackson Laboratory (Maine, USA). Brains were collected on ice in cold mitochondria isolation buffer (225 mM mannitol, 75 mM sucrose, 5 mM HEPES, 1 mM EGTA, pH 7.4). In a glass petri dish, brains were mixed with a few drops of buffer and cut into small pieces resembling a mash using scissors. Mitochondrial isolation buffer was added at 1:10-1:20 (w/v) and tissue mash was transferred to a glass Dounce tissue homogenizer and further homogenized with 10-15 strokes. Mash was centrifuged at 1,000×g for 10 min to pellet and remove cellular debris, etc. Supernatant was transferred into 2.0 mL tubes and centrifuged at 10,000×g. […]
All high-resolution respirometry experiments were conducted using the Oroboros O2k-Fluorespirometer (Oroboros, Innsbruck, Austria). […] Prior to each experiment requiring the fluorescence module, the AmpR calibration protocol from DatLab 7.4 was used to calibrate the fluorescence signal. […]
Reverse electron transfer (RET) was measured using HRR with the Oroboros O2k and DatLab 7.4. […]
Statistical analysis was performed using GraphPad Prism 9. […] RET Assay data were analyzed by 2-way ANOVA using a p-value of 0.05. […]

A short description of data set [3]: Pharmacokinetics of Compound 3, repeated (5 days) subcutaneous dose, rats. In kind it is in vivo, Sprague Dawley rats. As to the method:
• Animals: Rat/Sprague Dawley/Male/Naive 225-250 grams were received from an approved vendor. • Fasting was not required for this study. • Body weights were recorded prior to dose administration. The volume of each dose delivered (mL/kg) was based on each individual animal's body weight. • This was a multiple dose terminal study dosed once per day over 5 days. Rats were taken down following their 5th and final dose. • Doses were administered in accordance with test facility standard operating procedures. […] Any abnormalities were recorded. • Pre-formulated Compounds 3 was provided by Study sponsor ready to be dosed for each day in accordance with the Study Design set forth in Table 3, below.
• Terminal blood samples were collected via cardiac puncture following inhalation anesthesia in accordance with test facility standard operating procedures. • Blood samples were collected into tubes with appropriate anticoagulant. Tubes were stored on wet ice until processed to plasma by centrifugation (3500 rpm at 5° C. for 10 minutes) within 20 minutes of collection. Sample aliquots of 100 μL were transferred into individual uniquely labeled matrix tubes and stored at nominal −80° C. until transferred to analytical chemistry for analysis. • Immediately following each terminal blood collection for all groups, animals were sacrificed and perfused with cold PBS. […]

Take `CC1=C(C)C(=O)C(CC[C@@](C)(O)CC/C=C(\C)CCC=C(F)F)=C(C)C1=O` [Compound 2]: in data set [1], the “relative 15-LO inhibition (comparison between test articles)” value was “slightly less effective”. Take `CC1=C(C)C(=O)C(CC[C@](C)(O)CCCCCCCCC(F)(F)F)=C(C)C1=O` [Compound 4]: the H2O2 production entry in data set [2] (either 1 or 2 μM compound prior to succinate (10 mM)) is “statistically significant reduction”. As to `CC1=C(C)C(=O)C(CC[C@@](C)(O)COCCC[Si](C)(C)C)=C(C)C1=O` [Compound 3], in data set [3] (20 mg/kg SC in mouse versus 10 mg/kg SC in rat (60 mg/m^2)), the “plasma uptake and clearance across species (mouse versus rat)” value is “roughly equivalent; also recorded: scales well by allometry”. Besides, the tolerability result in data set [3] (rat, 10 mg/kg SC once per day for 5 days) was “well tolerated”. Besides, in data set [2] (2 μM compound prior to succinate (10 mM)), the H2O2 production result is recorded as “statistically significant reduction”.

The values above are taken from patent publication US20250090562A1, “METHODS, COMPOSITIONS AND USES RELATED TO THE TREATMENT AND PREVENTION OF LEIGH’S SYNDROME” (Stealth BioTherapeutics Inc., priority 2023, published 2025).
